Source: patent EP1377579B1 (Aventis Pharmaceuticals Inc., priority 2000, dated 2002)
Where a name gives a salt, the structure may show the parent alone. Read-outs that look alike come from different tables or passages of the source.

Experiments:
[1] = test system: HL-60 Human Leukemia; assay: HL-60 human leukemia xenograft in nude mice; format: in vivo; conditions: Table 5
Experimental: (§1) Antitumor efficacy is assessed using two subcutaneous human tumor xenograft models. The studies are performed using conventional assay techniques. Briefly, HL-60 (leukemia, 5 x10^5 cells) and PC-3 (prostate, 5 x 10^6 cells) tumor cells are injected subcuateously into nude mice (Crl-CD1-Br-nu, Charles River Laboratory, Wilmington, MA). Dosing with compounds began when tumors reached 50 to 100 mm^3. The dose route/schedule for the test compounds is ip/qld (5x/wk). The test doses are set based on the maximum tolerated dose (MTD). […] The test doses for the efficacy studies are set at 1/3rd the MTD (low dose) and the MTD (high dose). The results are shown in Tables 4 and 5 (HL-60, leukemia) (PC-3, prostate cancer). The length of the treatment phase is dependent on the tumor growth rate for the two models. This treatment phase is typically about 3 weeks for the HL-60 model and about 5 weeks for the PC-3 model. […] Dosing with flavopiridol is for the same time frame as for the experimental compounds in both xenograft models. Tumor volume (twice weekly) and body weights (once weekly) are monitored throughout the course of the treatment phase of the experiment. Tumor sizes are measured by external caliper measurements of protruding tumor. Volumes are calculated using the following formula: volume =½ (a x b2), where b is the smaller of two perpendicular diameters.

[2] = test system: PC-3; assay: In vitro proliferation assay (MTT), PC-3; format: cell-based, human; conditions: Homo sapiens
Method in brief: (§2)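 Cells were seeded at 1000 to 2500 cells/well, allowed to attach overnight, then exposed to test compounds for 3 days. Viable cells were estimated by MTT dye reduction, with dye solubilized in DMSO and absorbance read at 570 nm; IC50s derived from raw data.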

[3] = target: cdk4/cyclin D1 (Homo sapiens, UniProt P11802); assay: Cyclin-dependent kinase assay, cdk4/cyclin D1; format: biochemical; conditions: cyclin D1/cdk4; GST-pRb substrate, 10 µM ATP
[4] = test system: HL-60; assay: In vitro proliferation assay (MTT), HL-60; format: cell-based; conditions: Homo sapiens
Method in brief: (§3)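 Cells in RPMI 1640 with 5 % fetal bovine serum were seeded at 1000 to 2500 cells/well and allowed to attach overnight. After 3 days of compound exposure, MTT was added for 2 to 4 hr at 37 C. The dye was dissolved in DMSO, absorbance read at 570 nm, and IC50s derived.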

[5] = target: cdk1/cyclin B (Homo sapiens, UniProt P06493); assay: Cyclin-dependent kinase assay, cdk1/cyclin B; conditions: CDK1 IC50, nM, Histone H1, 10 µM ATP
[6] = test system: PC-3 Human Prostate Tumors; assay: PC-3 human prostate tumor xenograft in nude mice; format: in vivo; set-up: unit not given here; conditions: Table 5
Experimental: as §1

[7] = test system: MDA-MB-435; assay: In vitro proliferation assay (MTT), MDA-MB-435; format: cell-based, human; conditions: Homo sapiens
Method in brief: as §2

[8] = target: cdk2/cyclin E (Homo sapiens, UniProt P24941); assay: Cyclin-dependent kinase assay, cdk2/cyclin E; conditions: CDK2 IC50, nM, GST-pRb substrate, 10 µM ATP
[9] = test system: Jurkat; assay: In vitro proliferation assay (MTT), Jurkat; format: cell-based; conditions: Homo sapiens, MTT assay, value (SD, n) where given, read-out: Jurkat Leuk. (IC50 µM)
Method in brief: as §3

[10] = in vivo; conditions: male, Hsd:ICR (CD-1), mouse, plasma, 3 mg/kg
[11] = Bioavailability experiment in mice given single intravenous cassette doses
[12] = Red blood cell binding, human whole blood; format: in vitro ADME; conditions: 30 minutes at 37°C, 500 ng/ml
Experimental: Compounds, including one positive control, are assessed for red blood cell (RBC) uptake, using a modified procedure based on the protocol reported in Sun, J.X.S., et al. High-performance liquid chromatographic analysis, plasma protein binding and red blood cell partitioning of phenprobamate. Biopharmaceutics and Drug Disposition, 8 (1987) 341-351.
Briefly, RBC uptake is evaluated by comparison of the levels in spiked plasma (n=3) and plasma isolated from spiked whole blood (n=3). Compounds are incubated with human and mouse whole blood, respectively, for 30 minutes at 37°C using a nominal concentration of 500 ng/ml. Following centrifugation, the plasma is removed and submitted for analysis. Each compound is also spiked into blank plasma at a nominal concentration of 500 ng/ml, and submitted for analysis. Levels in the two plasma samples (Cp' and Cp in the equation below) and the blood hematocrit are used to determine the red blood cell to plasma ratio (Crbc/Cp). (Crbc)/(Cp) = (Cpʹ)/(Cp•H)-((1-H))/(H) [formula] In equation 1, Cp' is the level of drug in the spiked "blank" plasma, Cp is the level of drug in the plasma of spiked whole blood, and H is the hematocrit. The hematocrit values are determined as 0.4 for human whole blood and 0.41 for mouse whole blood. The samples are analyzed with ESI LC/MS, using positive ion detection with an internal standard.
The red blood cell to plasma ratio is determined for each compound using equation 1. Tables 6 and 7 summarize the respective mean Crbc/Cp values and standard deviations for mouse and human whole blood, respectively, in descending order based on the red blood cell to plasma ratio, where"*" denotes Positive Control, and "ND" denotes Not Determined. MDL 108552 is included as a positive control for red blood cell uptake. Table 6. Red Blood Cell to Plasma Ratio for compounds in mouse whole blood

[13] = test system: NCI-H460; assay: In vitro proliferation assay (MTT), NCI-H460; format: cell-based; conditions: Homo sapiens
Method in brief: as §3

[14] = test system: Colo-205; assay: In vitro proliferation assay (MTT), Colo-205; format: cell-based; conditions: Homo sapiens
Method in brief: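 Colo-205 cells were seeded at 1000–2500 cells/well and allowed to attach overnight, then exposed to compound for 3 days. Viable cells were measured by MTT reduction (2–4 h, 37 °C), with DMSO-solubilised dye read at 570 nm. IC50 was derived from concentration–response data.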

[15] = PC-3, MTT assay, value (SD, n) where given, read-out: PC-3 Prostate (IC50 µM)
[16] = HL-60, MTT assay, value (SD, n) where given, read-out: HL-60 Leuk. (IC50 µM)
[17] = MDA-MB-435, MTT assay, value (SD, n) where given, read-out: MB-435 Breast (IC50 µM)
[18] = NCI-H460, MTT assay, value (SD, n) where given, read-out: H-460 Lung (IC50 µM)
[19] = COLO 205, MTT assay, value (SD, n) where given, read-out: Colo-205 Colon (IC50 µM)

Chain of cdk4/cyclin D1 (P11802 whole entry): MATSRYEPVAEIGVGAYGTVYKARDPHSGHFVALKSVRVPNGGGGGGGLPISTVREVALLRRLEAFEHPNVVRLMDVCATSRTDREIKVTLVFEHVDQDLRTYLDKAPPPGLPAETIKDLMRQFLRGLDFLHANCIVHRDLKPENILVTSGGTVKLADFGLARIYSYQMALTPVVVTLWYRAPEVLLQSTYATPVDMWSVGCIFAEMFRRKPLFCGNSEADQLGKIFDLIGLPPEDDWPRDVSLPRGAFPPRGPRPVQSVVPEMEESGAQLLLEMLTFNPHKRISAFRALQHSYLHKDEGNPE
Chain of cdk4/cyclin D1 (P24385 whole entry partner): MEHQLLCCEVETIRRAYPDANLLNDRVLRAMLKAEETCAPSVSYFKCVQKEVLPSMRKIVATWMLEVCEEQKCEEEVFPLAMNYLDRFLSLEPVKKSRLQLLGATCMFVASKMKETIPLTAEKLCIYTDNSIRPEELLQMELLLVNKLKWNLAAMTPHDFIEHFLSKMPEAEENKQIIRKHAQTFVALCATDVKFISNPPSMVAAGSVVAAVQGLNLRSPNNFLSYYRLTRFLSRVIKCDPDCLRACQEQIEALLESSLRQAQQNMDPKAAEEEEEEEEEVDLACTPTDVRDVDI
Chain of cdk1/cyclin B (P06493 whole entry): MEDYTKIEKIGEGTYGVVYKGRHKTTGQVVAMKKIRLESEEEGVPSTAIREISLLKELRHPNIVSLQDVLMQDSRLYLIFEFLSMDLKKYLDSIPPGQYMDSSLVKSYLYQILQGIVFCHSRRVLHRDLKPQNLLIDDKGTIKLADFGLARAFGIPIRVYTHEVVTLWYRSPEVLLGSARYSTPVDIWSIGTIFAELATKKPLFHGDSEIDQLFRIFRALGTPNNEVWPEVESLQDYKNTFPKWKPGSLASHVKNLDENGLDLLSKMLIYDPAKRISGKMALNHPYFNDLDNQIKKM
Chain of cdk1/cyclin B (P14635 whole entry partner): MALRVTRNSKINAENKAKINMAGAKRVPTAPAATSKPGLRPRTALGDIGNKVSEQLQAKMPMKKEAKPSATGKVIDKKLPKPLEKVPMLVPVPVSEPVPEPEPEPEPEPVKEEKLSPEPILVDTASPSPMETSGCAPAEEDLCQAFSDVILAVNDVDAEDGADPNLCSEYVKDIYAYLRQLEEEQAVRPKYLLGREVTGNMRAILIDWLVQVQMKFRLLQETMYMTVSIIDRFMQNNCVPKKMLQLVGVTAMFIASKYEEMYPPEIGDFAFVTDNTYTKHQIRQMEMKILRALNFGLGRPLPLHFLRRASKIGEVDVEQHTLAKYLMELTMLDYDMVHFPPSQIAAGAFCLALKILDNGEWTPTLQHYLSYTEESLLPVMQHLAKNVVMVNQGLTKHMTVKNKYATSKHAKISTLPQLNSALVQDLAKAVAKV

N[C@H]1CC[C@H](Nc2nc(NC3CCN(C(=O)c4cccc(C(F)(F)F)c4)CC3)c3ncn(C4CCCC4)c3n2)CC1 [compound 3, dihydrochloride]
HL60 Mean Vol. ± SD ([1]; dose 1 mg/kg ip): 6370 ± 4655
HL60 Mean Vol. ± SD ([1]; dose 3 mg/kg ip): 6092 ± 4278
IC50 [2, 15]: 0.66 µM
IC50 [3]: 1120 nM
IC50 [4, 16]: 0.13 µM
IC50 [5]: 55 nM
PC-3 Mean Vol. ± SD ([6]; dose 1 mg/kg ip): 671 ± 672
PC-3 Mean Vol. ± SD ([6]; dose 3 mg/kg ip): 785 ± 473
IC50 [7, 17]: 0.25 µM
IC50 [8]: 48 nM
IC50 [9]: 0.22 µM

Cc1ccc(OC(=O)N2CCC(Nc3nc(N[C@H]4CC[C@H](N)CC4)nc4c3ncn4C3CCCC3)CC2)cc1.Cl.Cl [compound 82, trans-4-[2-(4-Amino-cyclohexylamino)-9-cyclopentyl-9H-purin-6-ylamino]-piperidine-1-carboxylic acid p-tolyl ester dihydrochloride]
HL60 Mean Vol. ± SD ([1]; dose 1 mg/kg ip): 5164 ± 55516
HL60 Mean Vol. ± SD ([1]; dose 3 mg/kg ip): 2841 ± 1845
IC50 ([2]; PC-3, read-out: PC-3 Prostate (IC50 µM)): 0.12 µM
concentration at 0.083 h ([10]; intravenous): 1460 ± 77.4 ng/mL
concentration at 0.25 h ([10]; intravenous): 875 ± 96.7 ng/mL
concentration at 0.5 h ([10]; intravenous): 370 ± 40 ng/mL
concentration at 1 h ([10]; intravenous): 134 ± 16.3 ng/mL
concentration at 3 h ([10]; intravenous): 37.5 ± 10.7 ng/mL
concentration at 6 h ([10]; intravenous): 14.5 ± 3.4 ng/mL
concentration at 8 h ([10]; intravenous): 12.3 ± 2.2 ng/mL
AUC(0-inf) ([10]; iv): 944 ng·h/mL
Cmax ([10]; iv): 1460 ng/mL
half-life ([10]; iv): 3 h
IC50 [3]: 131 nM
Cls ([11]; mice plasma, single intravenous cassette dose, 3 mg/kg/compound (15 mg/kg Total Dose), Cassette #4): 53.0 mL/min/kg
Conc. in plasma ([11]; mice, single 15 mg/kg intravenous cassette dose (3 mg/kg/compound), Cassette #4, 24 h, BLQ = below assay quantification limit (approximately 1 ng/ml)): BLQ
IC50 ([4]; HL-60, read-out: HL-60 Leuk. (IC50 µM)): 0.04 µM
IC50 [5]: 31 nM
PC-3 Mean Vol. ± SD ([6]; dose 1 mg/kg ip): 810 ± 600
PC-3 Mean Vol. ± SD ([6]; dose 3 mg/kg ip): 967 ± 407
IC50 ([7]; MDA-MB-435, read-out: MB-435 Breast (IC50 µM)): 0.06 µM
IC50 [8]: 45 nM
Mean Red Blood Cell to Plasma Ratio [12]: 5.8
IC50 ([13]; NCI-H460, read-out: H-460 Lung (IC50 µM)): 0.08 µM
IC50 ([14]; COLO 205, read-out: Colo-205 Colon (IC50 µM)): 0.06 µM

N[C@H]1CC[C@H](Nc2nc(NC3CCN(C(=O)Nc4cc(C(F)(F)F)ccc4F)CC3)c3ncn(C4CCCC4)c3n2)CC1 [compound 200, trans-4-[2-(4-Amino-cyclohexylamino)-9-cyclopentyl-9H-purin-6-ylamino]-piperidine-1-carboxylic acid (2-fluoro-5-trifluoromethyl-phenyl)-amide dihydrochloride]
IC50 [2, 15]: 0.16 µM
IC50 [3]: 597 nM
IC50 [4, 16]: < 0.02 µM
IC50 [5]: 10 nM
IC50 [7, 17]: 0.09 µM
IC50 [8]: 23 nM
IC50 [13, 18]: 0.19 µM
IC50 [14, 19]: 0.06 µM
IC50 [9]: 0.21 µM

N[C@H]1CC[C@H](Nc2nc(NC3CCN(C(=O)Nc4ccc(F)cc4C(F)(F)F)CC3)c3ncn(C4CCCC4)c3n2)CC1 [compound 202, trans-4-[2-(4-Amino-cyclohexylamino)-9-cyclopentyl-9H-purin-6-ylamino]-piperidine-1-carboxylic acid (4-fluoro-2-trifluoromethyl-phenyl)-amide dihydrochloride]
IC50 [2, 15]: 0.23 µM
IC50 [3]: 673 nM
IC50 [4, 16]: < 0.02 µM
IC50 [5]: 137 nM
IC50 [7, 17]: 0.22 µM
IC50 [8]: 48 nM
IC50 [13, 18]: 0.33 µM
IC50 [14, 19]: 0.2 µM
IC50 [9]: 0.53 µM

N[C@H]1CC[C@H](Nc2nc(NC3CCN(C(=O)Nc4ccc(F)c(C(F)(F)F)c4)CC3)c3ncn(C4CCCC4)c3n2)CC1 [compound 203, trans-4-[2-(4-Amino-cyclohexylamino)-9-cyclopentyl-9H-purin-6-ylamino]-piperidine-1-carboxylic acid (4-fluoro-3-trifluoromethyl-phenyl)-amide dihydrochloride]
IC50 [2, 15]: 0.3 µM
IC50 [3]: 733 nM
IC50 [4, 16]: < 0.02 µM
IC50 [5]: 10 nM
IC50 [7, 17]: 0.22 µM
IC50 [8]: 51 nM
IC50 [13, 18]: 0.54 µM
IC50 [14, 19]: 0.17 µM
IC50 [9]: 0.5 µM

N[C@H]1CC[C@H](Nc2nc(NC3CCN(C(=O)Nc4ccccc4F)CC3)c3ncn(C4CCCC4)c3n2)CC1 [compound 207, trans-4-[2-(4-Amino-cyclohexylamino)-9-cyclopentyl-9H-purin-6-ylamino]-piperidine-1-carboxylic acid (2-fluoro-phenyl)-amide dihydrochloride]
IC50 [2, 15]: 0.13 µM
IC50 [3]: 44 nM
IC50 [4, 16]: 0.02 µM
IC50 [5]: 50 nM
IC50 [7, 17]: 0.11 µM
IC50 [8]: 46 nM
IC50 [13, 18]: 0.14 µM
IC50 [14, 19]: 0.03 µM
IC50 [9]: 0.13 µM

N[C@H]1CC[C@H](Nc2nc(NC3CCN(C(=O)Nc4ccc(Cl)c(Cl)c4)CC3)c3ncn(C4CCCC4)c3n2)CC1 [compound 209, trans-4-[2-(4-Amino-cyclohexylamino)-9-cyclopentyl-9H-purin-6-ylamino]-piperidine-1-carboxylic acid (3,4-dichloro-phenyl)-amide dihydrochloride]
IC50 [2, 15]: 0.26 µM
IC50 [3]: 50 nM
IC50 [4, 16]: < 0.02 µM
IC50 [5]: 13 nM
IC50 [7, 17]: 0.17 µM
IC50 [8]: 34 nM
IC50 [13, 18]: 0.29 µM
IC50 [14, 19]: 0.05 µM
IC50 [9]: 0.13 µM
